What was measured:
Format in all cases: cell-based
[1] = system: MDA−MB−231 3D networks; assay: 3D bioprinted culture cytotoxicity (WST-1); settings: 72 h, mean ± SEM
From the text: (§1) To evaluate the cytotoxic effect of platinum(II) and (IV) complexes in 3D cell culture, MDA−MB−231 or HT29 cells were used to bioprint networks or spheroids with the non-contact drop-on-demand 3D RASTRUM bioprinter (Inventia Life Science, Alexandria, NSW, Australia). The 3D cultures use two constituents: bioink and activator. Cell pellets (2 × 10^6 cells) were resuspended in an activator reagent which forms an instant gel after its addition to the bioink by the bioprinter. The 3D large plug cell model with polyethylene glycol bioinks formulated to mimic the properties of in vivo tissue were chosen as follows. Matrix Px02.31 (activator F177 and bioink F242 with RGD: Fibronectin) was used for MDA−MB−231 3D embedded networks, Px02.00 (activator F177 and bioink F119 without RGD additives, Table S1) was used for MDA−MB−231 spheroids and matrix #Px02.09 (activator F177 and bioink F236 with adhesion peptides including, RGD: Fibronectin, and GFOGER: collagen type I to recapitulate rich in vivo tissue extracellular environments) was used for HT29 spheroids (Inventia Life Science) (Table S1). Each cell line was printed at 10,000 cells/well and loaded with the bioink fluids into the selected printer cartridge. After the automated priming of all fluids into the printer nozzles, each cell line was individually printed on tissue culture plates (Nunc^TM MicroWell^TM 96-Well, Nunclon Delta-Treated, Flat-Bottom Microplate, ThermoFisher #167008), with RASTRUM creating the 3D Large Plug across the 96-well plate. Following completion of the print run, 200 μL DMEM culture medium was added to each well using multichannel pipettes. The plate was then incubated for 7 days (humidified incubator with 5% CO2 at 37 °C) for compact and homogenous spheroid formation before the cytotoxicity assay. When the spheroids developed, post-7-day incubation, media was removed and replaced with 100 µL DMEM. […] Cytotoxicity was then assessed using the WST-1 assay as previously described in Section 2.3.

[2] = system: HT29 spheroids; assay: 3D bioprinted spheroid cytotoxicity (WST-1); settings: 72 h, mean ± SEM
From the text: as §1

[3] = system: MDA−MB−231 spheroids; assay: 3D bioprinted spheroid cytotoxicity (WST-1); settings: 72 h, mean ± SEM
From the text: as §1

[4] = system: HT29 cells; assay: DCFDA cellular ROS detection assay; settings: complexes at IC50, TBHP 20 µM
Protocol: (§2) DCFDA/H2DCFDA-cellular ROS Assay Kit (Abcam, Cambridge, MA, USA) was used to investigate the production of ROS in treated cells, as previously described. MDA−MB−231 or HT29 cells were seeded at a total concentration of 2500 cells/well in 96-well plates and incubated overnight. DMEM was then removed, and cells washed with 1× kit buffer, and stained with 25 µM 2′,7′-dichlorofluorescein diacetate (DCFH-DA) for 45 min. […] After that, the plates were scanned using the Glo-Max®-Multimode microplate reader (Promega Corporation, Alexandra, VIC, Australia) at an excitation/emission of 485/535 nm to detect fluorescence (relative fluorescence units, or RFU) at various time points. A positive control was generated using 20 µM tert-butyl hydroperoxide (TBHP), and the same procedure was applied with DCFDA. Three independent experiments in triplicates were implemented.

[5] = system: MDA−MB−231 cells; assay: DCFDA cellular ROS detection assay; settings: complexes at IC50, TBHP 20 µM
Protocol: as §2

[6] = system: HT29 cells; assay: Western blot protein expression; settings: HT29, IC50, 72 h; for β-actin/GAPDH normalized to control (1): representative blot Figure S28A; for β-tubulin/GAPDH normalized to control (1): representative blot Figure S28B; for α-tubulin/GAPDH normalized to control (1): representative blot Figure S28C; for p-AKT/AKT/GAPDH normalized to control (1): representative blot Figure S29A; for p-ERK/ERK/GAPDH normalized to control (1): representative blot Figure S29B; for p53/GAPDH normalized to control (1): representative blot Figure S29C; for p21/GAPDH normalized to control (1): representative blot Figure S29D; for Bax/GAPDH normalized to control (1): representative blot Figure S30A; for Bcl2/GAPDH normalized to control (1): representative blot Figure S30B; for Cyt C/GAPDH normalized to control (1): representative blot Figure S30C; for Procaspase 8/GAPDH normalized to control (1): representative blot Figure S30D; for Cleaved BID/GAPDH normalized to control (1): representative blot Figure S30E; for Procaspase 9/GAPDH normalized to control (1): representative blot Figure S30F; for Cleaved caspase 3/GAPDH normalized to control (1) / Procaspase 3/GAPDH normalized to control (1): representative blot Figure S30G; for Cleaved PARP-1/GAPDH normalized to control (1) / PARP-1/GAPDH normalized to control (1): representative blot Figure S30H; for Beclin1/GAPDH normalized to control (1): representative blot Figure S31A; for ATG5/GAPDH normalized to control (1): representative blot Figure S31B; for ATG16L1/GAPDH normalized to control (1): representative blot Figure S31C; for ATG9A/GAPDH normalized to control (1): representative blot Figure S31D; for ATG4B/GAPDH normalized to control (1): representative blot Figure S31E; for LC3B/GAPDH normalized to control (1): representative blot Figure S31F
Protocol: Protein extraction was then performed on ice. Media were collected in Eppendorf tubes, and centrifuged at 500× g for 5 min at 4 °C. Meanwhile, 200 µL of lysis RIPA buffer, made up of 150 mM NaCl, 50 mM Tris-HCl, pH 8.0, 0.1% Triton X-100, 0.5% sodium deoxycholate, 0.1% SDS and 1 mM sodium orthovanadate, was added to each well, the cells were scrapped into the buffer, and added to the media-derived pellets. The tubes were placed on the shaker for 10 min at 4 °C. Then, cell extracts were centrifuged at 12,000× g for 15 min at 4 °C, and the supernatants (containing the proteins) were collected. The Bio-Rad-DC protein assay (Bio-Rad, Hercules, CA, USA) was used to assess protein content. Laemmli protein sample buffer (4×) with β-mercaptoethanol (9%) was used to prepare a final protein concentration of 20 µg. The samples were then heated at 100 °C for 5 min. A final volume of 30 µL of each sample was added per well and subjected to SDS-PAGE using Bolt 4–12% Bis-Tris gel (Thermo Fisher, Eugene, OR, USA) at 80 V for 30 min and then 120 V for 60 min with PageRuler™ Prestained Protein or SeeBlue Prestained Protein Ladder (Thermo Fisher, Eugene, OR, USA). Proteins were subsequently transferred to a 0.2 µm PVDF membrane (Amersham, Cytiya) using a semi-dry blot transfer. The membrane was then blocked in 5% BSA in TBST, for 1 h and probed overnight at 4 °C with primary antibodies against several cell proliferation, apoptotic, anti-apoptotic, microtubule and autophagic protein markers listed in Table S7 as per the manufacturer’s protocol. The primary antibody was then removed, washed three times for 10 min with TBST and then membranes were treated with either mouse or rabbit HRP-coupled secondary antibodies (1/3000) for 1 h and 30 min. Protein band detection was then performed using the chemiluminescence ECL kit (Thermo Fisher, Eugene, OR, USA). Blot images were obtained using the Odyssey® FC imaging system (LI-COR Biosciences, Lincoln, NE, USA) and band intensities were quantified relatively to glyceraldehyde-3-phosphate dehydrogenase (GAPDH) and then normalised each replicate gel to its corresponding no treatment control using the ImageJ v1.53t software (National Institutes of Health, Bethesda, MD, USA). Each marker results from the same experiment or parallel experiment where the gels were processed in parallel. Three independent experiments per marker were conducted.

Row | Compound | IC50 [1] | IC50 [2] | IC50 [3] | ROS production ([4]; HT29, 24 h) | ROS production ([4]; HT29, 48 h) | ROS production ([4]; HT29, 72 h) | ROS production ([5]; MDA−MB−231, 24 h) | ROS production ([5]; MDA−MB−231, 48 h) | ROS production ([5]; MDA−MB−231, 72 h) | β-actin/GAPDH normalized to control (1) [6] | β-tubulin/GAPDH normalized to control (1) [6] | α-tubulin/GAPDH normalized to control (1) [6] | p-AKT/AKT/GAPDH normalized to control (1) [6] | p-ERK/ERK/GAPDH normalized to control (1) [6] | p53/GAPDH normalized to control (1) [6] | p21/GAPDH normalized to control (1) [6] | Bax/GAPDH normalized to control (1) [6] | Bcl2/GAPDH normalized to control (1) [6] | Cyt C/GAPDH normalized to control (1) [6] | Procaspase 8/GAPDH normalized to control (1) [6] | also measured
1 | Cc1cc2cccnc2c2ncccc12.N[C@H]1CCCC[C@@H]1N.O=[N+]([O-])[O-].O=[N+]([O-])[O-].[OH][Pt+2][OH] [Pt^IV5MESS(OH)2, [Pt(5-methyl-1,10-phenanthroline)(1S,2S-diaminocyclohexane)(dihydroxy)](NO3)2] | 3.82 ± 1.42 µM | 8.46 ± 1.23 µM | 7.99 ± 1.3 µM | 234.55 RFU | 278.33 RFU | 296.67 RFU | 245.26 RFU | 264.00 RFU | 314.78 RFU | 0.2948 | 0.1611 | 0.1518 | 0.4249 | 1.297 | 3.349 | 2.658 | 3.075 | 0.4381 | 6.184 | 0.4372 | Cleaved BID/GAPDH normalized to control (1) [6]: 2.712; Procaspase 9/GAPDH normalized to control (1) [6]: 0.2026; Cleaved caspase 3/GAPDH normalized to control (1) [6]: 7.887; Procaspase 3/GAPDH normalized to control (1) [6]: 1.238; Cleaved PARP-1/GAPDH normalized to control (1) [6]: 5.761; PARP-1/GAPDH normalized to control (1) [6]: 0.6207; Beclin1/GAPDH normalized to control (1) [6]: 6.943; ATG5/GAPDH normalized to control (1) [6]: 0.2364; ATG16L1/GAPDH normalized to control (1) [6]: 2.006; ATG9A/GAPDH normalized to control (1) [6]: 2.334; ATG4B/GAPDH normalized to control (1) [6]: 0.5922; LC3B/GAPDH normalized to control (1) [6]: 1.713
2 | Cc1c(C)c2cccnc2c2ncccc12.N[C@H]1CCCC[C@@H]1N.O=[N+]([O-])[O-].O=[N+]([O-])[O-].[OH][Pt+2][OH] [Pt^IV56MESS(OH)2, [Pt(5,6-dimethyl-1,10-phenanthroline)(1S,2S-diaminocyclohexane)(dihydroxy)](NO3)2] | 1.4 ± 1.34 µM | 3.16 ± 1.32 µM | 4.59 ± 1.35 µM | 244 RFU | 318.56 RFU | 368.11 RFU | 292.21 RFU | 360.12 RFU | 386.28 RFU | 1.209 | 0.7075 | 0.5719 | 0.7209 | 1.28 | 5.047 | 2.808 | 3.498 | 1.034 | 7.663 | 0.4035 | Cleaved BID/GAPDH normalized to control (1) [6]: 2.651; Procaspase 9/GAPDH normalized to control (1) [6]: 0.4964; Cleaved caspase 3/GAPDH normalized to control (1) [6]: 1.746; Procaspase 3/GAPDH normalized to control (1) [6]: 1.297; Cleaved PARP-1/GAPDH normalized to control (1) [6]: 2.724; PARP-1/GAPDH normalized to control (1) [6]: 0.7172; Beclin1/GAPDH normalized to control (1) [6]: 6.222; ATG5/GAPDH normalized to control (1) [6]: 0.3221; ATG16L1/GAPDH normalized to control (1) [6]: 4.523; ATG9A/GAPDH normalized to control (1) [6]: 0.9044; ATG4B/GAPDH normalized to control (1) [6]: 0.9223; LC3B/GAPDH normalized to control (1) [6]: 1.976
3 | Cc1cc2cccnc2c2ncccc12.N[C@H]1CCCC[C@@H]1N.O=[N+]([O-])[O-].O=[N+]([O-])[O-].[Pt+2] [Pt^II5MESS, [Pt(5-methyl-1,10-phenanthroline)(1S,2S-diaminocyclohexane)](NO3)2] | 2.04 ± 1.31 µM | 2.91 ± 1.39 µM | 4.08 ± 1.37 µM | 278.00 RFU | 362.89 RFU | 404.44 RFU | 316.23 RFU | 372.49 RFU | 399.97 RFU | 0.2979 | 0.1238 | 0.06789 | 0.07338 | 0.7076 | 1.275 | 1.147 | 1.624 | 0.09591 | 3.741 | 0.2934 | Cleaved BID/GAPDH normalized to control (1) [6]: 1.69; Procaspase 9/GAPDH normalized to control (1) [6]: 0.1393; Cleaved caspase 3/GAPDH normalized to control (1) [6]: 10.88; Procaspase 3/GAPDH normalized to control (1) [6]: 0.7678; Cleaved PARP-1/GAPDH normalized to control (1) [6]: 11.42; PARP-1/GAPDH normalized to control (1) [6]: 0.2554; Beclin1/GAPDH normalized to control (1) [6]: 3.11; ATG5/GAPDH normalized to control (1) [6]: 0.9969; ATG16L1/GAPDH normalized to control (1) [6]: 1.285; ATG9A/GAPDH normalized to control (1) [6]: 0.4486; ATG4B/GAPDH normalized to control (1) [6]: 0.7306; LC3B/GAPDH normalized to control (1) [6]: 1.207

Reference: paper PMC11274883, “Anticancer Effect of Pt^[sequence], Pt^II5MESS, Pt^II56MESS and Their Platinum(IV)-Dihydroxy Derivatives against Triple-Negative Breast Cancer and Cisplatin-Resistant Colorectal Cancer” (Cancers, 2024)
